Common to all, as to assay: inhibition of tumour cell growth, NCI panel, 48 h
Assay [1] concerns 786-0.
Assay [2] has as its system COLO 205.
The subject of assay [3] is HCT-116.
Assay [4] concerns HOP-62.
Assay [5] deals with HT-29.
The subject of assay [6] is Hs-578T.
In assay [7] the test system is LOX IMVI.
In assay [8] the test system is MDA-MB-435.
The test system of assay [9] is MOLT-4.
Assay [10] relates to Malme-3M.
The test system of assay [11] is NCI-H226.
For assay [12], the system named is NCI-H460.
Assay [13] deals with SF-295.
The subject of assay [14] is SF-539.
For assay [15], the system named is SK-MEL-5.
In assay [16] the test system is SN12C.
The test system of assay [17] is SNB-75.
In assay [18] the test system is A498.
Assay [19] deals with BT-549.

The structures appear in SMILES notation.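 A five-concentration, 48-hour dose response in 96-well plates underlies each endpoint, interpolated linearly between surrounding concentrations. GI50 marks 50% less growth.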 Activity calls are given as the source filed them. Rule as the data show it: active = GI50 up to about 1.1 µM and inactive = higher. Some results are limits rather than exact numbers.

For `NNc1ncc2c(n1)-c1ccccc1OC2`, the GI50 was 64.3 µM (inactive) in assay [1]; 59.3 µM (inactive) in assay [2]; 36.5 µM (inactive) in [3]; 35.6 µM (inactive) in assay [4]; 43.9 µM (inactive) in assay [5]; > 100 µM (inactive) in assay [6]. Further, the GI50 was 58.9 µM (inactive) in [7]; 70.5 µM (inactive) in assay [8]; 22.5 µM (inactive) in assay [9]; 51.2 µM (inactive) in assay [10]; 75.2 µM (inactive) in assay [11]; 32.3 µM (inactive) in assay [12]. The GI50 in [13] was 36.1 µM (inactive); in [14], 46.3 µM (inactive); in assay [15], 76.9 µM (inactive); in [16] it was 71.6 µM (inactive); in assay [17], 35.6 µM (inactive).
On to `O=C(OC1C(Oc2ccccc2COC(=O)C2(O)C=CCCC2=O)OC(CO)C(O)C1O)c1ccccc1` (stereo unspecified), for which the GI50 in assay [1] is 25.3 µM (inactive); in assay [2], 23.3 µM (inactive); in assay [3], 45.9 µM (inactive); in assay [4], 42 µM (inactive); in [5], 60.4 µM (inactive); in assay [6], 13.5 µM (inactive). Also, the GI50 in [7] is 23.6 µM (inactive); in assay [8], 27.5 µM (inactive); in [9] it was 6.03 µM (inactive); in assay [10], 18 µM (inactive); in assay [11], 23.8 µM (inactive); in [12], 22.3 µM (inactive). For the same compound, the GI50 in assay [14] is 29.6 µM (inactive); in [15] it was 1.28 µM (inactive); in assay [16], 25.9 µM (inactive); in assay [17] it was 7.13 µM (inactive).
Turning to `COC(=O)[C@H](Cc1ccc(OC(C)(C)C)cc1)N[C@H](C)C(=O)N[C@@H](Cc1ccccc1)C(=O)OCc1ccccc1`, the GI50 in assay [1] is 54.3 µM (inactive); in assay [18] it was > 100 µM (inactive); in [2] it was 96.6 µM (inactive); in assay [3], 35.6 µM (inactive); in assay [4], > 100 µM (inactive); in [5], 47.2 µM (inactive). In addition, the GI50 was > 100 µM (inactive) in assay [6]; 34.4 µM (inactive) in assay [7]; 82.8 µM (inactive) in assay [8]; 20 µM (inactive) in assay [9]; > 100 µM (inactive) in [10]; 25.8 µM (inactive) in assay [11]. In addition, the GI50 was > 100 µM (inactive) in assay [12]; > 100 µM (inactive) in [13]; > 100 µM (inactive) in assay [14]; > 100 µM (inactive) in assay [15]; 26.9 µM (inactive) in [16]; 57.1 µM (inactive) in assay [17].
`CC(C)(C)C(=O)CC(=O)C(F)(F)C(F)(F)C(F)(F)F`: the GI50 in assay [1] is 17 µM (inactive); in assay [2], 19 µM (inactive); in [3] it was 18.3 µM (inactive); in [4], 18.3 µM (inactive); in assay [5], 17.1 µM (inactive); in [6] it was 14.6 µM (inactive). Further, the GI50 is 0.362 µM (active) in assay [7]; 15.5 µM (inactive) in assay [8]; 17.9 µM (inactive) in assay [9]; 22.1 µM (inactive) in assay [10]; 27.8 µM (inactive) in [11]; 12.9 µM (inactive) in assay [12]. Besides, the GI50 is 17.5 µM (inactive) in assay [13]; 24.8 µM (inactive) in assay [14]; 7.19 µM (inactive) in assay [15]; 13.9 µM (inactive) in assay [16]; 16.6 µM (inactive) in [17].
As to `CC(=O)Nc1ccccc1SCCSSCCSc1ccccc1NC(C)=O`, the GI50 in assay [1] was 28.4 µM (inactive); in [19], 51.9 µM (inactive); in [2], 20.4 µM (inactive); in [3], 36.2 µM (inactive); in assay [4] it was 58.6 µM (inactive); in [5], 28.8 µM (inactive). For the same compound, the GI50 in assay [7] is 20 µM (inactive); in [8] it was 19.5 µM (inactive); in assay [9], 24 µM (inactive); in assay [10], 34.7 µM (inactive); in [11], 31.1 µM (inactive); in [12] it was 25.1 µM (inactive). The GI50 was 26.7 µM (inactive) in [13]; 24 µM (inactive) in assay [14]; 38.5 µM (inactive) in assay [15]; 32.4 µM (inactive) in assay [16]; 24.3 µM (inactive) in [17].
`CC(=O)OC/C=C/Cn1ncc(=O)[nH]c1=O`: the GI50 in [18], in assay [2], in [4], in assay [5], in assay [6] and in assay [7] was > 100 µM (inactive) throughout. Also, the GI50 in [8], in [9], in assay [10], in [11], in assay [12] and in assay [14] was > 100 µM (inactive) in each case. For the same compound, the GI50 in assay [15], in assay [16] and in assay [17] was > 100 µM (inactive) throughout.
With `O=C1CCC2(CC1CC[S+]([O-])c1ccccc1)OCCO2` (stereo unspecified), the GI50 in assay [1], in assay [18], in assay [2], in assay [4], in [5] and in assay [6] was > 100 µM (inactive) each time. Further, the GI50 in assay [7], in assay [8], in [9], in [10], in [11] and in assay [12] was > 100 µM (inactive) throughout. The GI50 in [13], in assay [14], in assay [15] and in assay [17] was > 100 µM (inactive) in each case.
On to `COCC(/N=C\N1CCCc2ccccc2[C@@H]1CCCCl)C(C)(C)C` (stereo partly specified), for which the GI50 in assay [1] is 7.96 µM (inactive); in assay [18] it was 13.2 µM (inactive); in [2] it was 0.586 µM (active); in assay [3], 1.23 µM (inactive); in assay [4] it was 15.3 µM (inactive); in assay [5] it was 1.54 µM (inactive). Moreover, the GI50 was 0.0184 µM (active) in [6]; 8.41 µM (inactive) in assay [7]; 11.7 µM (inactive) in assay [8]; 1.71 µM (inactive) in [9]; 0.332 µM (active) in assay [10]; 5.28 µM (inactive) in [11]. Moreover, the GI50 in assay [12] is 35.7 µM (inactive); in assay [13], 17.2 µM (inactive); in assay [14] it was 12.1 µM (inactive); in [15] it was 1.31 µM (inactive); in assay [16] it was 17.1 µM (inactive); in [17] it was 3.01 µM (inactive).
On to `CC(C)N(C(=O)C12C3C4C1C1C2C3C41C(=O)O)C(C)C` (stereo unspecified), for which the GI50 in [1], in assay [18], in [2], in [3], in [4] and in assay [5] was > 100 µM (inactive) in each case. Also, the GI50 in assay [7], in [9], in [10], in assay [11], in [12] and in assay [13] was > 100 µM (inactive) throughout. Besides, the GI50 in assay [14], in [15], in assay [16] and in [17] was > 100 µM (inactive) throughout.
With `NC1=NN(c2ccccc2)C(=O)C1/C(=N\NC(=O)c1cc2ccccc2cc1O)C(=O)Nc1ccc(Cl)c(Cl)c1` (stereo unspecified), the GI50 in [1] is 31.3 µM (inactive); in assay [18], 49.8 µM (inactive); in assay [2], 18.9 µM (inactive); in assay [3] it was 35.2 µM (inactive); in assay [4], 65.2 µM (inactive); in [5] it was 59.2 µM (inactive). In addition, the GI50 in assay [7] was 24.5 µM (inactive); in [9] it was 22.9 µM (inactive); in assay [10], 33 µM (inactive); in assay [11] it was 64.9 µM (inactive); in assay [12] it was 31.3 µM (inactive); in assay [13], 35.8 µM (inactive). Moreover, the GI50 is 30.9 µM (inactive) in assay [14], 29.5 µM (inactive) in assay [15], 35.6 µM (inactive) in assay [16] and 31.2 µM (inactive) in assay [17].
With `COc1c2c(cc3nc4ccccc4nc13)CC[C@H](NC(C)=O)c1cc(=O)c(SC)ccc1-2`, the GI50 is 0.506 µM (active) in assay [1]; 7.62 µM (inactive) in [18]; 0.283 µM (active) in [2]; 0.46 µM (active) in [3]; 11.9 µM (inactive) in assay [4]; 1.04 µM (active) in assay [5]. Moreover, the GI50 in assay [6] was 0.126 µM (active); in assay [7], 0.755 µM (active); in assay [8], 0.132 µM (active); in assay [9], 0.555 µM (active); in assay [10] it was 0.288 µM (active); in assay [11] it was 1.08 µM (active). Besides, the GI50 in [12] is 0.933 µM (active); in assay [13], 1.17 µM (inactive); in assay [14], 0.304 µM (active); in assay [15], 0.412 µM (active); in [16] it was 2.79 µM (inactive).
`Nc1ncnc2c1ncn2C1OC(CO)C2OC21` (stereo unspecified): the GI50 is > 10 µM (inactive) in assay [1]; > 100 µM (inactive) in [18]; > 100 µM (inactive) in [2]; > 100 µM (inactive) in assay [3]; > 100 µM (inactive) in assay [4]; > 100 µM (inactive) in [5]. Also, the GI50 in assay [6] is > 100 µM (inactive); in [7], > 100 µM (inactive); in [8], > 10 µM (inactive); in [9] it was > 100 µM (inactive); in assay [10], > 10 µM (inactive); in assay [11], > 100 µM (inactive). Further, the GI50 in [12] is > 10 µM (inactive); in [13], > 100 µM (inactive); in [14], > 100 µM (inactive); in assay [15] it was > 100 µM (inactive); in assay [16], > 100 µM (inactive); in assay [17], > 100 µM (inactive).

Source of the values: ChEMBL document CHEMBL1201862, “PubChem BioAssay data set” (2004).
